Assay results from ChEMBL document CHEMBL5247652, “Discovery of Novel Substrate-Competitive Lysine Methyltransferase G9a Inhibitors as Anticancer Agents” (J Med Chem, 2023).
≈ marks a conversion by molar mass, not a printed value.

What was measured:
[1] = biological target: T1, Histone-lysine N-methyltransferase EHMT2 (Homo sapiens, UniProt Q96KQ7); assay: Inhibition of N-terminal GST-tagged human recombinant G9a (785 to 1210 residues) expressed in baculovirus infected Sf9 cells incubated for 1 hr by AlphaLISA analysis
T1 sequence (Q96KQ7 whole entry): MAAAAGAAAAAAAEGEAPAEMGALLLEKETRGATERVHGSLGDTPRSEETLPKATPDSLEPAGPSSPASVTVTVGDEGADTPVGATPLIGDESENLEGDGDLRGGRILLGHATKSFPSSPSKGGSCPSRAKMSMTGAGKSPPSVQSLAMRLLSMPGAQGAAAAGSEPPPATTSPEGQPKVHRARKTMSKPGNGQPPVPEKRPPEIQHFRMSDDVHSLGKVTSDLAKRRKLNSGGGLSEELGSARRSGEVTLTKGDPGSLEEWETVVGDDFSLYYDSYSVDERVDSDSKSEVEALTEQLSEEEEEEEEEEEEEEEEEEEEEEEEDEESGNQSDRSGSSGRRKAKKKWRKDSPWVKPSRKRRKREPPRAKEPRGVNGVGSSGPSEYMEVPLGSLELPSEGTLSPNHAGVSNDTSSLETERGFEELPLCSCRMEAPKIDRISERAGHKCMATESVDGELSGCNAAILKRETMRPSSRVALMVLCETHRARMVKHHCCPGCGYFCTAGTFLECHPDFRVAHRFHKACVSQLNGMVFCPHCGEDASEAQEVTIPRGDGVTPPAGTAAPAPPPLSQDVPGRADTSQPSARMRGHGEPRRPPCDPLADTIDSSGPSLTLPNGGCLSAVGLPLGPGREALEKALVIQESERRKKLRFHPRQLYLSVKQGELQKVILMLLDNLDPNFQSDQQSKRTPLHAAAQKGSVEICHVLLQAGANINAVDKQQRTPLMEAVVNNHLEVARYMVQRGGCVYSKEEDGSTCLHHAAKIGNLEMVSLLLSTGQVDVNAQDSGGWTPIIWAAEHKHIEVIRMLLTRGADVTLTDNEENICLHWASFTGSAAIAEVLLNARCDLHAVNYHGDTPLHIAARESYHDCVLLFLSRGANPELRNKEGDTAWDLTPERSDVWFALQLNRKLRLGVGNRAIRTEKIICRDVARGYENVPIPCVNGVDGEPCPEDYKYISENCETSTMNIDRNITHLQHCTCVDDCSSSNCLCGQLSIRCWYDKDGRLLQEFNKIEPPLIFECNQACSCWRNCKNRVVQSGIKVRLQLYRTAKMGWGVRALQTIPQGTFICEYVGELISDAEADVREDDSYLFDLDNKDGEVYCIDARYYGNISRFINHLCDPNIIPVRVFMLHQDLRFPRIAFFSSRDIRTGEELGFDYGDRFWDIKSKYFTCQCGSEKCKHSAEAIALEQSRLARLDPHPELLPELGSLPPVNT

[2] = Aqueous solubility of compound at pH 7.4 measured for 1 hr by UV-plate reader analysis; assay type: physicochemical; conditions: buffer
[3] = Permeability of compound by PAMPA assay; assay type: ADME; conditions: read-out: permeability
[4] = Microsomal stability in human liver microsomes assessed as parent compound remaining after 30 mins in presence of NADPH by LC -MS/MS analysis; assay type: ADME, Microsome; conditions: read-out: Stability
[5] = Microsomal stability in mouse liver microsomes assessed as parent compound remaining after 30 mins in presence of NADPH by LC -MS/MS analysis; assay type: ADME, Microsome; conditions: read-out: Stability

Row | Compound | IC50 [1] [µM] | solubility at 1 h [2] [µM] | Papp [3] [nm/s] | remaining at 0.5 h [4] [%] | remaining at 0.5 h [5] [%]
1 | CCCC[C@H](NC(=O)c1[nH]c2c(c1C)C(=O)CC1(CCOCC1)C2)C(=O)Nc1ccccc1 | 2.08 | – | – | – | –
2 | CCCC[C@H](NC(=O)c1[nH]c2c(c1C(C)(C)C)C(=O)CC(C)(C)C2)C(=O)Nc1ccccc1 | > 50 | – | – | – | –
3 | CCCC[C@H](NC(=O)c1[nH]c2c(c1C(C)C)C(=O)CC(C)(C)C2)C(=O)Nc1ccccc1 | 0.0724 | – | – | – | –
4 | CCCC[C@H](NC(=O)c1[nH]c2c(c1C)C(=O)CC1(CCCCC1)C2)C(=O)Nc1ccccc1 | 1.47 | – | – | – | –
5 | CCCC[C@H](NC(=O)c1[nH]c2c(c1C)C(=O)CC(C)(C)C2)c1nc2ccccc2[nH]1 | 1.9 | – | – | – | –
6 | Cc1c(C(=O)N[C@@H](CCCN(C)C)c2nc3ccccc3[nH]2)[nH]c2c1C(=O)CC(C)(C)C2 | > 50 | – | – | – | –
7 | CCCCC(NC(=O)c1[nH]c2c(c1C)C(=O)CC(C)(C)C2)C(=O)Nc1ccc(C)cc1 (racemic) | 0.491 | 1.8 (≈ 0.762 µg/mL) | – | – | –
8 | Cc1c(C(=O)NC(CCC2CCC2)C(=O)Nc2ccccc2)[nH]c2c1C(=O)CC(C)(C)C2 (racemic) | 0.636 | – | – | – | –
9 | CCCCC(NC(=O)c1[nH]c2c(c1C)C(=O)CC(C)(C)C2)C(=O)Nc1cccc(Cl)c1 (racemic) | 1.54 | 4.5 (≈ 2 µg/mL) | – | – | –
10 | CCCCC(NC(=O)c1[nH]c2c(c1C)C(=O)CC(C)(C)C2)C(=O)Nc1ccc(C(=O)O)cc1 (racemic) | 1.8 | – | – | – | –
11 | CCCCC(NC(=O)c1[nH]c2c(c1C)C(=O)CC(C)(C)C2)C(=O)Nc1ccccc1Cl (racemic) | 1.08 | 13.9 (≈ 6.17 µg/mL) | 71.6 | 30 | 0.1
12 | CCCCC(NC(=O)c1[nH]c2c(c1C)C(=O)CC(C)(C)C2)C(=O)Nc1ccc(F)cc1 (racemic) | 0.909 | 16.5 (≈ 7.05 µg/mL) | 235 | 83.8 | 37.5
13 | CCCCC(NC(=O)c1[nH]c2c(c1C)C(=O)CC(C)(C)C2)C(=O)Nc1ccc(C(N)=O)cc1 (racemic) | 0.526 | 104 (≈ 47.1 µg/mL) | 6.2 | 90.9 | 92.2
14 | CCCCC(NC(=O)c1[nH]c2c(c1C)C(=O)CC(C)(C)C2)C(=O)Nc1cccc(C#N)c1 (racemic) | 0.685 | 14.5 (≈ 6.3 µg/mL) | 77.8 | 79.1 | 6.4
15 | CCCCC(NC(=O)c1[nH]c2c(c1C)C(=O)CC(C)(C)C2)C(=O)N(C)c1ccccc1 (racemic) | > 50 | 4.9 (≈ 2.08 µg/mL) | – | – | –
16 | CCCCC(NC(=O)c1[nH]c2c(c1C)C(=O)CC(C)(C)C2)C(=O)Nc1cccc(OC)c1 (racemic) | 1.21 | 3 (≈ 1.32 µg/mL) | – | – | –
17 | CCCCC(NC(=O)c1[nH]c2c(c1C)C(=O)CC(C)(C)C2)C(=O)Nc1ccc(C#N)cc1 (racemic) | 0.446 | 12.9 (≈ 5.61 µg/mL) | 36.8 | 89.5 | 63.9
18 | CCCCC(NC(=O)c1[nH]c2c(c1C)C(=O)CC(C)(C)C2)C(=O)Nc1ccccn1 (racemic) | 4.26 | 62.1 (≈ 25.5 µg/mL) | 112 | 68.8 | 25.1
19 | CCCCCC(NC(=O)c1[nH]c2c(c1C)C(=O)CC(C)(C)C2)C(=O)Nc1ccccc1 (racemic) | > 50 | – | – | – | –
20 | Cc1c(C(=O)NC(CCC(C)C)C(=O)Nc2ccccc2)[nH]c2c1C(=O)CC(C)(C)C2 (racemic) | 0.291 | – | – | – | –
21 | Cc1c(C(=O)NC(CC2CC2)C(=O)Nc2ccccc2)[nH]c2c1C(=O)CC(C)(C)C2 (racemic) | 1.16 | – | – | – | –
22 | CCCCC(NC(=O)c1[nH]c2c(c1C)C(=O)CC(C)(C)C2)C(=O)Nc1ccc(OC)cc1 (racemic) | 1.81 | 5.9 (≈ 2.59 µg/mL) | – | – | –
23 | CSCCC(NC(=O)c1[nH]c2c(c1C)C(=O)CC(C)(C)C2)c1nc2ccccc2[nH]1 (racemic) | 5.32 | – | – | – | –
24 | CCCCC(NC(=O)c1[nH]c2c(c1C)C(=O)CC(C)(C)C2)C(=O)Nc1ccccc1C#N (racemic) | 1.57 | 15.5 (≈ 6.74 µg/mL) | 78.5 | 40.8 | 5.5
25 | CCCCC(NC(=O)c1[nH]c2c(c1C)C(=O)CC(C)(C)C2)C(=O)NC1CCCCC1 (racemic) | 0.925 | 15 (≈ 6.23 µg/mL) | 41.5 | 1.2 | 0
26 | Cc1c(C(=O)NC(COC2CC2)C(=O)Nc2ccccc2)[nH]c2c1C(=O)CC(C)(C)C2 (racemic) | 1.6 | – | – | – | –
27 | CCCCC(NC(=O)c1[nH]c2c(c1C)CCC(C)(C)C2)C(=O)Nc1ccccc1 (racemic) | > 50 | – | – | – | –

The remaining lines, values ahead:

Row | IC50 [1] [µM] | solubility at 1 h [2] [µM] | Papp [3] [nm/s] | remaining at 0.5 h [4] [%] | remaining at 0.5 h [5] [%] | Compound
28 | 8.64 | – | – | – | – | CCCC[C@@H](NC(=O)c1[nH]c2c(c1C)C(=O)CC(C)(C)C2)C(=O)Nc1ccccc1
29 | 17 | – | – | – | – | Cc1c(C(=O)N[C@@H](CCN(C)C)c2nc3ccccc3[nH]2)[nH]c2c1C(=O)CC(C)(C)C2
30 | 0.355 | – | – | – | – | CCCC[C@H](NC(=O)c1[nH]c2c(c1C)C(=O)CC(C)(C)C2)C(=O)Nc1ccccc1
31 | 0.178 | – | – | – | – | CCCC[C@H](NC(=O)c1[nH]c2c(c1CC)C(=O)CC(C)(C)C2)C(=O)Nc1ccccc1
32 | 1.43 | – | – | – | – | CSCC[C@H](NC(=O)c1[nH]c2c(c1C)C(=O)CC(C)(C)C2)c1nc2ccccc2[nH]1
33 | 0.306 | – | – | – | – | CCCC[C@H](NC(=O)c1[nH]c2c(c1CCC)C(=O)CC(C)(C)C2)C(=O)Nc1ccccc1
34 | 4.5 | – | – | – | – | CCCC[C@@H](NC(=O)c1[nH]c2c(c1C)C(=O)CC(C)(C)C2)c1nc2ccccc2[nH]1
35 | 20.9 | – | – | – | – | CCCCC(NC(=O)c1[nH]c2c(c1C)C(=O)CCC2)C(=O)Nc1ccccc1 (racemic)
36 | 1.09 | 11 (≈ 4.28 µg/mL) | 87.3 | 30.6 | 0.8 | CCCCNC(=O)C(CCCC)NC(=O)c1[nH]c2c(c1C)C(=O)CC(C)(C)C2 (racemic)
37 | 1.14 | 133 (≈ 54.6 µg/mL) | 36.3 | 15.7 | 59.4 | CCCCC(NC(=O)c1[nH]c2c(c1C)C(=O)CC(C)(C)C2)C(=O)Nc1ccncc1 (racemic)
38 | > 5 | – | – | – | – | Cc1c(C(=O)NC(CCc2ccccc2)C(=O)Nc2ccccc2)[nH]c2c1C(=O)CC(C)(C)C2 (racemic)
39 | – | 20.1 (≈ 8.23 µg/mL) | 125 | 77.8 | 19.9 | CCCCC(NC(=O)c1[nH]c2c(c1C)C(=O)CC(C)(C)C2)C(=O)Nc1ccccc1 (racemic)
40 | 2.96 | 43.6 (≈ 21.3 µg/mL) | 13.9 | – | – | CCCCC(NC(=O)c1[nH]c2c(c1C)C(=O)CC(C)(C)C2)C(=O)Nc1ccc(S(C)(=O)=O)cc1 (racemic)
41 | 4.04 | – | – | – | – | CCCC(NC(=O)c1[nH]c2c(c1C)C(=O)CC(C)(C)C2)C(=O)Nc1ccccc1 (racemic)
42 | 27.6 | – | – | – | – | Cc1c(C(=O)NC(CCCCN)C(=O)Nc2ccccc2)[nH]c2c1C(=O)CC(C)(C)C2 (racemic)
43 | 1.52 | 5.1 (≈ 2.26 µg/mL) | – | – | – | CCCCC(NC(=O)c1[nH]c2c(c1C)C(=O)CC(C)(C)C2)C(=O)Nc1ccc(Cl)cc1 (racemic)
44 | 0.802 | 7.2 (≈ 3.16 µg/mL) | 494 | 11.8 | 1.7 | CCCCC(NC(=O)c1[nH]c2c(c1C)C(=O)CC(C)(C)C2)C(=O)Nc1ccccc1OC (racemic)
45 | 1.36 | – | – | – | – | Cc1c(C(=O)NC(CCC2(C)CC2)C(=O)Nc2ccccc2)[nH]c2c1C(=O)CC(C)(C)C2 (racemic)
46 | > 50 | – | – | – | – | CCCCC(NC(=O)c1c(C)c2c(n1C)CC(C)(C)CC2=O)C(=O)Nc1ccccc1 (racemic)
47 | 1.81 | 143 (≈ 58.7 µg/mL) | 69.5 | 32.4 | 44.7 | CCCCC(NC(=O)c1[nH]c2c(c1C)C(=O)CC(C)(C)C2)C(=O)Nc1cccnc1 (racemic)
48 | 12.3 | – | – | – | – | Cc1c(C(=O)NC(CCCN)C(=O)Nc2ccccc2)[nH]c2c1C(=O)CC(C)(C)C2 (racemic)
49 | > 50 | – | – | – | – | CCCCC(NC(=O)c1oc2c(c1C)C(=O)CC(C)(C)C2)C(=O)Nc1ccccc1 (racemic)
50 | – | – | 194 | – | – | CC(C)NCC(O)COc1cccc2ccccc12 (centres undefined) [PROPRANOLOL]
